Patent US5726203A, “Qinghaosu derivatives against AIDS” (priority 1993, dated 1998)
Read-outs that look alike come from different tables or passages of the source.

Key:
U937 HIV-1 [1] = experiment: Inhibition effect on HIV-1 infected U937 cells (macrophage cell line), HIV antigen test (IE); format: cell-based; conditions: U937 HIV-1; 50 μg/ml
Protocol: a. Freshly cultured MT4 cells (5×10^5 /ml) were co-cultivated with the virus fluid (10^3 TCID50 /ml) in a CO2 incubator at 37° C. for 1-1.5 hours. RPMI 1640 complete medium (containing 10% Bovine serum and antibiotics, such as penicillin) was used to wash the unbound virus.
Complete medium was added to correct the concentration for use.
The experiment was carried out on the plates with 96 wells. 0.1 ml of the above-mentioned infected MT4 cell suspension was added into each well, and then 0.1 ml of various concentrations of the drugs were added. […] Each concentration of the drugs was added into two wells. Both the experiment group and the control group were incubated in a CO2 incubator at 37° C. The drug solution were changed 3 days later, and the following observations were carried out 6 days afterwards.
c. Determination of the virus antigen expression. The immunoenzymatic method was used to examine the virus antigen expression. Cells from each group were separately smeared in two wells. They were fixed with cold acetone, HIV-positive serum was dropped into the wells. After incubated in a CO2 incubator at 37° C. for 30 minutes, they were washed with PBS for 3 times. Enzyme-labelled SPA was dropped into the wells. They were incubated in the same condition for 30 minutes, washed with PBS for 3 times, and then put in substrate solution to stain for 2-3 minutes, washed with distilled water, and observed under microscope. Normal cells were colorless, whereas virus-carrying cells appeared browrish red.
(§1) Furthermore, a part of the compounds according to the present invention were used to test their inhibition effect on U937 cell line (macrophage cell line)according to the methods in Experiment 1.

U937 HIV-1 [2] = experiment: Inhibition effect on HIV-1 infected U937 cells, activity of reverse transcriptase; format: cell-based; conditions: 50 μg/ml, control 24502
Excerpt: as §1

Plasmodium Berghei = experiment: Peters' four day inhibition test in mice, erythrocytic stage of Plasmodium Berghei; format: in vivo; conditions: once a day D0-D3, Hybrid Kunming strain mice, read-out: SD50 (the source's name)
Excerpt: Effect on Erythrocytic Stage of Plasmodium Berghei 1. "Four day inhibition test" in mice To determinate the SD50 with Peters' "four day inhibition test". Hybrid Kunming strain mice, body weight 18-22 g, were inculated with 1×10^7 parasites infected RBC intraperitoneally on D0. Dihydroqinghaosu-methylcarbamate, dihydroqinghaosu-butylcarbamate, dihydroqinghaosu-benzenecarbamate and dihydroqinghaosu-4-nitrobenzenecarbamate with different concentration were given once a day from D0 -D3. Blood smears from mouse's tail were made on D4, stained with Gimsa reagent and examined under microscope to count the infected and uninfected erthrocyte to get infected rate. Inhibitory rates of different dosages were calculated by following formula. The SD50 was calculated by the simplified probit analysis: [formula]

Toxoplasma Gendei = experiment: Antitoxoplasma effect in vitro in BALB/C mouse macrophages; format: cell-based; conditions: for Infected rate of macrophages / No. of parasites in 100 macrophages / inhibition at 50 µg/mL / inhibition at 100 µg/mL / inhibition at 200 µg/mL: 48 hours; for Infected rate of macrophages: control 75.60; for No. of parasites in 100 macrophages: control 544.00; for inhibition at 50 µg/mL / inhibition at 100 µg/mL / inhibition at 200 µg/mL: Toxoplasma, Macrophage
Protocol: In vitro incubation was used in the experiment. Macrophages were taken from intraperitoneal of the uninfected BALB/C mice (obtained from Universite Pierre et Marie Curie), centrafuged, washed and counted. Around 1.28×10^5 cells was added into each culture dish, incubated at 37° C. for 3 hours to let the cells to be adherented, then infected by parasites (Toxoplasma Gendei, obtained from Universite Pierre et Marie Curie), in which parasite number was 1×106, so that there were 5 organisms per macrophage. The dishes were incubated at 37° C. for 48 hours, different concentration, (i.e., 50 μg/ml, 100 μg/ml, 200 μg/ml) of the compound according to the present invention was added in. In a control group, no drug was added in. After being cultured at 37° C. for 48 hours, dishes of compound treated groups and control group were colorated. Under microscope, the number of infected and uninfected macrophages in each dishes were counted and to calculated infected rate of macrophage and to count the number of parasites in 100 macrophages.

Acute toxicity in mice = format: in vivo; conditions: for LD50: mouse, in vivo, po
Protocol: Animals: Hybrid swiss strain mice (provided by Animal House of Institute of Chinese Mateia Media, China Academy of Traditional Chinese Medicine), 20-22 grams, less than 6 weeks age of both sexes fed in laboretory for 3-5 days observation and a random taking food and drinking.
Drugs: Dihydroqinghaosu-methylcarbamate and dihydroqinghaosu-benzenecarbamate.
Above two drugs in powder form were dissolved into peanut oil. The biggest dose were 2000 mg/kg and 2161 mg/kg respectively. The distances between two dose groups were 0.7 and 0.68 respectively, with 5 dose groups each drugs.
Method: The mice were given single dose of above compound respectively intragastrically, the acute intoxication manifestrations were observed the LD value (LD5, LD50 and LD95) and B value were determined by three days mortality.

[3] = Subacute toxicologic study; conditions: in vivo, read-out: basic safe dosage
[4] = F + M, single dose intragastrically
[5] = F, single dose intragastrically
[6] = M, single dose intragastrically

With `CNC(=O)OC1OC2OC3(C)CCC4C(C)CCC(C1C)C24OO3` (stereo not drawn) [Dihydroqinghaosu-methylcarbamate, Dihydroqinghaosu-Methylcarbamate] as the compound, how does the “Antigen test (IE)” value (U937 HIV-1 [1]) read?
Its value is “- (positive cells were not seen in the whole well)”.

What about the “Activity of reverse transcription (CPM)” value (U937 HIV-1 [2]) of the same compound?
The value was 4463 CPM.

And the ED50 (Plasmodium Berghei)?
Its ED50 is 0.24 mg/kg.

What about the “Infected rate of macrophages” value (Toxoplasma Gendei; 50 μg/ml) of the same compound?
Its value is 0.67.

What about the “No. of parasites in 100 macrophages” value (Toxoplasma Gendei; 50 μg/ml) of the same compound?
Its value is 2.67.

What about the “Infected rate of macrophages” value (Toxoplasma Gendei; 100 μg/ml) of the same compound?
The value was 0.

And the “No. of parasites in 100 macrophages” value (Toxoplasma Gendei; 100 μg/ml)?
Its value is 0.

And the “Infected rate of macrophages” value (Toxoplasma Gendei; 200 μg/ml)?
The value was 0.

What about the “No. of parasites in 100 macrophages” value (Toxoplasma Gendei; 200 μg/ml) of the same compound?
The value was 0.

And the inhibition at 50 µg/mL (Toxoplasma Gendei; 50 μg/ml, read-out: Inhibition rate (No. of parasites in 100 macrophages))?
The inhibition at 50 µg/mL was 99.5%.

And the inhibition at 50 µg/mL (Toxoplasma Gendei; 50 μg/ml, read-out: Inhibition rate (infected rate of macrophages))?
Its inhibition at 50 µg/mL is 99.1%.

What about the inhibition at 100 µg/mL (Toxoplasma Gendei; 100 μg/ml, read-out: Inhibition rate (No. of parasites in 100 macrophages)) of the same compound?
Its inhibition at 100 µg/mL is 100%.

And the inhibition at 100 µg/mL (Toxoplasma Gendei; 100 μg/ml, read-out: Inhibition rate (infected rate of macrophages))?
The inhibition at 100 µg/mL was 100%.

What about the inhibition at 200 µg/mL (Toxoplasma Gendei; 200 μg/ml, read-out: Inhibition rate (No. of parasites in 100 macrophages)) of the same compound?
Its inhibition at 200 µg/mL is 100%.

And the inhibition at 200 µg/mL (Toxoplasma Gendei; 200 μg/ml, read-out: Inhibition rate (infected rate of macrophages))?
The inhibition at 200 µg/mL was 100%.

What about the “inhibition on Toxoplasma Gendei in vitro” value (Toxoplasma Gendei; in words) of the same compound?
The value was “obvious inhibition on Toxoplasma Gendei in vitro”.

And the “Death distribution of mice, exp./death” value (Acute toxicity in mice; 462 mg/kg, female)?
Its value is 5/0.

What about the “Death distribution of mice, exp./death” value (Acute toxicity in mice; 462 mg/kg, female + male) of the same compound?
The value was 10/1.

And the “Death distribution of mice, exp./death” value (Acute toxicity in mice; 462 mg/kg, male)?
The value was 5/1.

What about the “Death distribution of mice, exp./death” value (Acute toxicity in mice; 680 mg/kg, female) of the same compound?
Its value is 5/2.

What about the “Death distribution of mice, exp./death” value (Acute toxicity in mice; 680 mg/kg, female + male) of the same compound?
Its value is 10/2.

What about the “Death distribution of mice, exp./death” value (Acute toxicity in mice; 680 mg/kg, male) of the same compound?
Its value is 5/1.

And the “Death distribution of mice, exp./death” value (Acute toxicity in mice; 1000 mg/kg, female)?
Its value is 5/2.

What about the “Death distribution of mice, exp./death” value (Acute toxicity in mice; 1000 mg/kg, female + male) of the same compound?
The value was 10/4.

What about the “Death distribution of mice, exp./death” value (Acute toxicity in mice; 1000 mg/kg, male) of the same compound?
Its value is 5/2.

And the “Death distribution of mice, exp./death” value (Acute toxicity in mice; 1470 mg/kg, female)?
The value was 5/2.

What about the “Death distribution of mice, exp./death” value (Acute toxicity in mice; 1470 mg/kg, female + male) of the same compound?
Its value is 10/5.

And the “Death distribution of mice, exp./death” value (Acute toxicity in mice; 1470 mg/kg, male)?
Its value is 5/3.

What about the “Death distribution of mice, exp./death” value (Acute toxicity in mice; 2161 mg/kg, female) of the same compound?
Its value is 5/5.

What about the “Death distribution of mice, exp./death” value (Acute toxicity in mice; 2161 mg/kg, female + male) of the same compound?
The value was 10/10.

And the “Death distribution of mice, exp./death” value (Acute toxicity in mice; 2161 mg/kg, male)?
The value was 5/5.

What about the LD5 (Acute toxicity in mice; [4]) of the same compound?
Its LD5 is 435.75 mg/kg.

And the LD95 (Acute toxicity in mice; [4])?
Its LD95 is 2883.02 mg/kg.

And the “slope (B)” value (Acute toxicity in mice; [4])?
The value was 4.01.

And the LD5 (Acute toxicity in mice; [5])?
Its LD5 is 543.17 mg/kg.

And the LD95 (Acute toxicity in mice; [5])?
The LD95 was 2711.67 mg/kg.

What about the “slope (B)” value (Acute toxicity in mice; [5]) of the same compound?
The value was 4.711.

What about the LD5 (Acute toxicity in mice; [6]) of the same compound?
Its LD5 is 360.92 mg/kg.

What about the LD95 (Acute toxicity in mice; [6]) of the same compound?
The LD95 was 2932.84 mg/kg.

What about the “slope (B)” value (Acute toxicity in mice; [6]) of the same compound?
Its value is 3.620.

What about the LD50 (Acute toxicity in mice; [4]) of the same compound?
The LD50 was 1120 mg/kg.

And the LD50 (Acute toxicity in mice; [5])?
The LD50 was 1210 mg/kg.

What about the LD50 (Acute toxicity in mice; P.O. (per os)) of the same compound?
The LD50 was 1120 mg/kg.

And the LD50 (Acute toxicity in mice; single dose intragastrically)?
The LD50 was 1030 mg/kg.

What about the NOAEL [3] of the same compound?
The NOAEL was 30.2 mg/kg/day.
